Here are results for two compounds from patent publication US20030125323A1, “Use of selective potassium channel openers” (priority 2001, published 2003).

Data set [1] concerns obese female hyperinsulinemic nondiabetic Zucker rats. The data set is described as follows: oral glucose tolerance test after 35 days treatment of obese Zucker rats. The data set is classed as in vivo, rat. To be noted: FIG. 1. As to the method:
14 obese female hyperinsulinemic nondiabetic Zucker rats were treated with the test compound 6-chloro-3-(1-methylcylodopropyl)amino-4H-thieno[3,2-e]-1,2,4-thiadiazine 1,1-dioxide and 14 were treated with vehicle for 35 days. After treatment, oral glucose tolerance was tested and found to be improved in animals treated with 6-chloro-3-(1-methylcylodopropyl)amino-4H-thieno[3,2-e]-1,2,4-thiadiazine 1,1-dioxide and the improvement was associated with decreased hyperinsulinemia.

Data set [2] relates to women with Polycystic Ovary Syndrome (PCOS). Conditions: Nestler et al. 1989; cited from earlier work.
Data set [3] has as its system KATP-channels on pancreatic β-cells. To be noted: by activation of KATP-channels on pancreatic β-cells; Pirotte et al. 1993, 1994; cited from earlier work.

Molecules are shown by their SMILES.

`CC1(NC2=NS(=O)(=O)c3sc(Cl)cc3N2)CC1` [6-chloro-3-(1-methylcylodopropyl)amino-4H-thieno[3,2-e]-1,2,4-thiadiazine 1,1-dioxide]: in data set [1] (associated with the improved glucose tolerance), the hyperinsulinemia result is reported as “decreased”. Moreover, the oral glucose tolerance result in data set [1] (compared with vehicle) is given as “improved”.
As for `CC1=Nc2ccc(Cl)cc2S(=O)(=O)N1` [diazoxide, 7-chloro-3-methyl-2H-1,2,4-benzothiadiazine 1,1-dioxide], in data set [2], the “concentrations of serum testosterone” value is “reduce”, the “glycaemia (adverse effect due to the reduction in insulin)” value was “significantly hyperglycemic” and the hyperinsulinaemia result is “reduce”. The insulin release result in data set [3] was “inhibit”.
